Data as given in patent US10889555B2, “Sulfonamide compound or salt thereof” (Taiho Pharmaceutical Co., Ltd., priority 2016, dated 2021).
Read-outs that look alike come from different tables or passages of the source.

Tested on: HCC 1806 cells
Test: Cell proliferation inhibitory effect on human breast cancer cell line (crystal violet, 72 hours)
Assay type: cell-based
Details: read-out: Cell growth suppression IC50
How it was run: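 Cells were seeded at 2,000/well in RPMI-1640 with 10% FBS and grown 1 day, then exposed to compound for 72 h at 37° C, 5% CO2. After glutaraldehyde fixation and 0.05% crystal violet staining, extracted dye was read at 540 nm. IC50 (μM) came from growth inhibition relative to untreated and cell-free wells.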

Row | Structure (SMILES) | IC50 (Homo sapiens, HCC1806, 72 h) [nM] | IC50 [nM]
1 | COc1cc(Cl)ccc1S(=O)(=O)N[C@H](c1n[nH]c(=O)o1)[C@H](C)c1c(F)ccc(-c2ccc(N3CCOCC3)nc2)c1C [Example 315, 4-chloro-N-((1S,2R)-2-(6-fluoro-2-methyl-3-(6-morpholinopyridin-3-yl)phenyl)-1-(5-oxo-4,5-dihydro-1,3,4-oxadiazol-2-yl)propyl)-2-methoxybenzenesulfonamide] | 930 | 
2 | Cc1c(Cl)ccc(F)c1[C@@H](C)[C@H](NS(=O)(=O)c1ccc(Cl)c2c1OCCC2(C)N)c1n[nH]c(=O)o1 (single isomer, unassigned) [Example 330A] | 240 | 
3 | Cc1ccc(F)c([C@@H](C)[C@H](NS(=O)(=O)c2cc(C(C)(C)O)ccc2C(N)=O)c2n[nH]c(=O)o2)c1C [Example 197, 2-(N-((1S,2R)-2-(6-fluoro-2,3-dimethylphenyl)-1-(5-oxo-4,5-dihydro-1,3,4-oxadiazol-2-yl)propyl)sulfamoyl)-4-(2-hydroxypropan-2-yl)benzamide] | 410 | 
4 | COc1cc(Cl)ccc1S(=O)(=O)N[C@H](c1n[nH]c(=O)o1)[C@H](C)c1c(F)ccc2ccccc12 [Example 76, 4-chloro-N-((1S,2R)-2-(2-fluoronaphthalen-1-yl)-1-(5-oxo-4,5-dihydro-1,3,4-oxadiazol-2-yl)propyl)-2-methoxybenzenesulfonamide] | 440 | 
5 | COc1cc(Cl)ccc1S(=O)(=O)N[C@H](c1n[nH]c(=O)o1)[C@H](C)c1c(F)ccc(-c2cnn(C3CC3)c2)c1C [Example 311, 4-chloro-N-((1S,2R)-2-(3-(1-cyclopropyl-1H-pyrazol-4-yl)-6-fluoro-2-methylphenyl)-1-(5-oxo-4,5-dihydro-1,3,4-oxadiazol-2-yl)propyl)-2-methoxybenzenesulfonamide] | 520 | 
6 | Cc1c(Cl)ccc(F)c1[C@@H](C)[C@H](NS(=O)(=O)c1ncc(Cl)cc1C(N)=O)c1n[nH]c(=O)o1 [Example 249, 5-chloro-2-(N-((1S,2R)-2-(3-chloro-6-fluoro-2-methylphenyl)-1-(5-oxo-4,5-dihydro-1,3,4-oxadiazol-2-yl)propyl)sulfamoyl)nicotinamide] | 140 | 
7 | CC(=O)OC1(C)CCOc2c(S(=O)(=O)N[C@H](c3n[nH]c(=O)o3)[C@H](C)c3c(F)ccc(Br)c3C)ccc(Cl)c21 (stereo partly drawn) [Example 167, 8-(N-((1S,2R)-2-(3-bromo-6-fluoro-2-methylphenyl)-1-(5-oxo-4,5-dihydro-1,3,4-oxadiazol-2-yl)propyl)sulfamoyl)-5-chloro-4-methylchroman-4-yl-acetate] | 140 | 
8 | COc1cc(Cl)ccc1S(=O)(=O)N[C@H](c1n[nH]c(=O)o1)[C@H](C)c1c(F)ccc(-c2cnn(C(F)F)c2)c1C [Example 304, 4-chloro-N-((1S,2R)-2-(3-(1-(difluoromethyl)-1H-pyrazol-4-yl)-6-fluoro-2-methylphenyl)-1-(5-oxo-4,5-dihydro-1,3,4-oxadiazol-2-yl)propyl)-2-methoxybenzenesulfonamide] | 940 | 
9 | Cc1c(Cl)ccc(F)c1[C@@H](C)[C@H](NS(=O)(=O)c1ccc(Cl)c2c1OCCC2O)c1n[nH]c(=O)o1 (single isomer, unassigned) [Example 238A] | 440 | 
10 | Cc1c(Br)ccc(F)c1[C@@H](C)[C@H](NS(=O)(=O)c1ccc(Cl)c2c1OCCC2O)c1n[nH]c(=O)o1 (single isomer, unassigned) [Example 243A] |  | 290
11 | COc1c(S(=O)(=O)N[C@H](c2n[nH]c(=O)o2)[C@H](C)c2c(F)ccc(C)c2C)ccc(Cl)c1C(C)O (stereo partly drawn) [Example 204, 4-chloro-N-((1S,2R)-2-(6-fluoro-2,3-dimethylphenyl)-1-(5-oxo-4,5-dihydro-1,3,4-oxadiazol-2-yl)propyl)-3-(1-hydroxyethyl)-2-methoxybenzenesulfonamide] | 150 | 
12 | Cc1ccc(F)c([C@@H](C)[C@H](NS(=O)(=O)c2ccc(Cl)c(C(=O)N3CCOCC3)n2)c2n[nH]c(=O)o2)c1C [Example 113, 5-chloro-N-((1S,2R)-2-(6-fluoro-2,3-dimethylphenyl)-1-(5-oxo-4,5-dihydro-1,3,4-oxadiazol-2-yl)propyl)-6-(morpholine-4-carbonyl)pyridine-2-sulfonamide] | 600 | 
13 | CCc1ccc(F)c([C@@H](C)[C@H](NS(=O)(=O)c2ccc(Cl)c3c2OCCC3O)c2n[nH]c(=O)o2)c1C (single isomer, unassigned) [Example 239A] | 720 | 
14 | Cc1c(Br)ccc(F)c1[C@@H](C)[C@H](NS(=O)(=O)c1ccc(F)c2c1OCCC2(C)O)c1n[nH]c(=O)o1 (single isomer, unassigned) [Example 227A] | 190 | 
15 | Cc1ccc(F)c([C@@H](C)[C@H](NS(=O)(=O)c2cc(C(C)(C)O)c(Cl)cc2C(N)=O)c2n[nH]c(=O)o2)c1C [Example 198, 5-chloro-2-(N-((1S,2R)-2-(6-fluoro-2,3-dimethylphenyl)-1-(5-oxo-4,5-dihydro-1,3,4-oxadiazol-2-yl)propyl)sulfamoyl)-4-(2-hydroxypropan-2-yl)benzamide] | 50 | 
16 | Cc1c(Cl)ccc(F)c1[C@@H](C)[C@H](NS(=O)(=O)c1ncc(Br)cc1C(N)=O)c1n[nH]c(=O)o1 [Example 254, 5-bromo-2-(N-((1S,2R)-2-(3-chloro-6-fluoro-2-methylphenyl)-1-(5-oxo-4,5-dihydro-1,3,4-oxadiazol-2-yl)propyl)sulfamoyl)nicotinamide] | 250 | 
17 | [2H]C([2H])([2H])[C@H](c1c(F)ccc(C)c1C)[C@H](NS(=O)(=O)c1ccc(Cl)cc1C(N)=O)c1n[nH]c(=O)o1 [Example 43, 5-chloro-2-[[(1S,2R)-3,3,3-trideuterio-2-(6-fluoro-2,3-dimethylphenyl)-1-(2-oxo-3H-1,3,4-oxadiazol-5-yl)propyl]sulfamoyl]benzamide] | 280 | 
18 | Cc1cccc2cccc([C@@H](C)[C@H](NS(=O)(=O)c3ccc(Cl)c4c3OCCC4O)c3n[nH]c(=O)o3)c12 (stereo partly drawn) [Example 232, 5-chloro-4-hydroxy-N-((1S,2R)-2-(8-methylnaphthalene-1-yl)-1-(5-oxo-4,5-dihydro-1,3,4-oxadiazol-2-yl)propyl)chroman-8-sulfonamide] | 330 | 
19 | Cc1ccc(F)c([C@@H](C)[C@H](NS(=O)(=O)c2ccc(F)c3c2OCCC3O)c2n[nH]c(=O)o2)c1C (single isomer, unassigned) [Example 230B] |  | 780
20 | Cc1c(Cl)ccc(F)c1[C@@H](C)[C@H](NS(=O)(=O)c1ccc(Cl)c2c1OCCC2(C)N)c1n[nH]c(=O)o1 (mixture of isomers) [Example 328, 4-amino-5-chloro-N-((1S,2R)-2-(3-chloro-6-fluoro-2-methylphenyl)-1-(5-oxo-4,5-dihydro-1,3,4-oxadiazol-2-yl)propyl)-4-methylchroman-8-sulfonamide] | 410 | 
21 | COc1c(S(=O)(=O)N[C@H](c2n[nH]c(=O)o2)[C@H](C)c2c(F)ccc(C)c2C)ccc(Cl)c1C(C)O (single isomer, unassigned) [Example 208A] |  | 330
22 | Cc1ccc(F)c([C@@H](C)[C@H](NS(=O)(=O)c2ccc(Cl)c3c2OCCC3N)c2n[nH]c(=O)o2)c1C (stereo partly drawn) [Example 278, 4-amino-5-chloro-N-((1S,2R)-2-(6-fluoro-2,3-dimethylphenyl)-1-(5-oxo-4,5-dihydro-1,3,4-oxadiazol-2-yl)propyl)chroman-8-sulfonamide] | 590 | 
23 | COc1cc(Cl)ccc1S(=O)(=O)N[C@H](c1n[nH]c(=O)o1)[C@H](C)c1cccc2cccc(C)c12 [Example 71, 4-chloro-2-methoxy-N-((1S,2R)-2-(8-methylnaphthalen-1-yl)-1-(5-oxo-4,5-dihydro-1,3,4-oxadiazol-2-yl)propyl)benzenesulfonamide] | 790 | 
24 | Cc1c(Br)ccc(F)c1[C@@H](C)[C@H](NS(=O)(=O)c1ncc(Cl)cc1C(N)=O)c1n[nH]c(=O)o1 [Example 264, 2-(N-((1S,2R)-2-(3-bromo-6-fluoro-2-methylphenyl)-1-(5-oxo-4,5-dihydro-1,3,4-oxadiazol-2-yl)propyl)sulfamoyl)-5-chloronicotinamide] | 760 | 
25 | Cc1ccc(F)c([C@@H](C)[C@H](NS(=O)(=O)c2ncc(Cl)cc2C(N)=O)c2n[nH]c(=O)o2)c1C [Example 245, 5-chloro-2-(N-((1S,2R)-2-(6-fluoro-2,3-dimethylphenyl)-1-(5-oxo-4,5-dihydro-1,3,4-oxadiazol-2-yl)propyl)sulfamoyl)nicotinamide] | 150 | 
26 | Cc1ccc(F)c([C@@H](C)[C@H](NS(=O)(=O)c2cc(F)c(Cl)cc2C(N)=O)c2n[nH]c(=O)o2)c1C [Example 255, 5-chloro-4-fluoro-2-(N-((1S,2R)-2-(6-fluoro-2,3-dimethylphenyl)-1-(5-oxo-4,5-dihydro-1,3,4-oxadiazol-2-yl)propyl)sulfamoyl)benzamide] | 480 | 
27 | COc1c(S(=O)(=O)N[C@H](c2n[nH]c(=O)o2)[C@H](C)c2c(F)ccc(C)c2C)ccc(Cl)c1C(C)OC(C)=O (stereo partly drawn) [Example 144, 1-(6-chloro-3-(N-((1S,2R)-2-(6-fluoro-2,3-dimethylphenyl)-1-(5-oxo-4,5-dihydro-1,3,4-oxadiazol-2-yl)propyl)sulfamoyl)-2-methoxyphenyl)ethyl acetate] | 960 | 
28 | Cc1ccc(F)c([C@@H](C)[C@H](NS(=O)(=O)c2cc(C(=O)N(C)C)c(Cl)cc2C(N)=O)c2n[nH]c(=O)o2)c1C [Example 39, 2-chloro-5-(N-((1S,2R)-2-(6-fluoro-2,3-dimethylphenyl)-1-(5-oxo-4,5-dihydro-1,3,4-oxadiazol-2-yl)propyl)sulfamoyl)-N1,N1-dimethyl terephthalamide] | 230 | 
29 | CC(=O)OC1(C)CCOc2c(S(=O)(=O)N[C@H](c3n[nH]c(=O)o3)[C@H](C)c3c(F)ccc(Cl)c3C)ccc(Cl)c21 (stereo partly drawn) [Example 100, 5-chloro-8-(N-((1S,2R)-2-(3-chloro-6-fluoro-2-methylphenyl)-1-(5-oxo-4,5-dihydro-1,3,4-oxadiazol-2-yl)propyl)sulfamoyl)-4-methylchroman-4-yl acetate] | 390 | 
